Literature values in patent US12582625B2, “Methods for treating neuroblastoma” (priority 2015, dated 2026).

How the values were obtained:
[1] = in vivo; cited from earlier work
[2] = system: tumors harboring Ki-ras mutations; details: AOM-treated rats, reduced from 90% (Singh et al., 1994); cited from earlier work
[3] = cited from earlier work
[4] = human, in vivo; cited from earlier work

In the case of Cc1ccc(-c2cc(C(F)(F)F)nn2-c2ccc(S(N)(=O)=O)cc2)cc1 [celecoxib, 4-[5-(4-Methylphenyl)-3-(trifluoromethyl)pyrazol-1-yl]benzenesulfonamide], the “increase in rates of heart and blood vessel disease” value [1] is given as 30% and the “risk of gastrointestinal side effects” value [1] is given as “greater than 80%”.
In the case of CN1C(C(=O)Nc2ccccn2)=C(O)c2ccccc2S1(=O)=O [piroxicam, 4 hydroxy-2-methyl-N-2-pyridyl-2H-1,2-benzothiazine-3-carboxamide 1,1-dioxide], the “tumors harboring Ki-ras mutations” value [2] is listed as 25%.
For CC1=C(CC(=O)O)c2cc(F)ccc2/C1=C\c1ccc([S+](C)[O-])cc1 (stereo not shown) [sulindac, (Z)-5-fluoro-2-methyl-1-((4-(methylsulfinyl)phenyl)methylene)-1H-chemical indene-3-acetic acid], the drug absorbed ([3]; after oral administration) is listed as “about 90%”, the “time to peak plasma levels” value ([3]; fasting patients) is listed as “about 2 hours” and the “patients with mild gastrointestinal effects” value [4] is listed as about 20%. For the same molecule, the “patients with skin rash and pruritus” value [4] was 5%.
